Values after ≈ are worked out from the molar mass of the structure shown. Like-named read-outs stand apart in the source and are kept apart here.
Experiments:
SWTD3 (RUSA315/pGCSW-3) [1] = assay: Standard disk susceptibility, transductant SWTD3; type: cell-based, Staphylococcus aureus; conditions: SWTD3 versus recipient RUSA315; FIG. 5
Experimental: (§1) Susceptibility testing and population analysis. One colony of bacterial strain was inoculated into 5 ml of TSB (tryptic soy broth, Difco Laboratories) and incubated at 37° C. with 200 rpm rotation for overnight. Culture density (OD600) was adjusted to give a viable titer of 10^8 to 10^9 cfu/ml. Sterile swabs were dipped into the bacterial suspension and applied to TSA (tryptic soy agar, Difco Laboratories) plates without antibiotics, and 6-mm-diameter disks containing antibiotics were applied to the plates with a disk dispenser (BBL, Beckton-Dickinson and Company). The antibiotics used were as follows: […] of methicillin, 10 U of penicillin, 30 μg of cefazolin, 20 μg of ampicillin/sulbactam, 15 μg of erythromycin, 10 μg of gentamicin, 30 μg of tetracycline, 30 μg chloramphenicol, 5 μg of rifampin, and 5 μg of ciproflaxin (BBL, Becton Dickinson and Company). Diameters of inhibition zones were read after incubation at 37° C. for 24 h. To perform population analysis, aliquots of overnight cultures were spread onto TSA plates containing increasing concentrations of methicillin. CFU were determined after 48 h of incubation at 37° C. [de Lencastre et al., Antimicrob Agents Chemother. 35:632-639 (1991)].
(§2) Complementation analysis with plasmid pGCSW-3. Plasmid pGCSW-3 was transformed into S. aureus RN4220 (r-) by electroporation and the electro-transformant SWET3 was used as donor to introduce pGCSW-3 into recipients RUSA315 and RUSA12F.

strain COL = conditions: peptidoglycan composition; cited from earlier work
[2] = test system: mecA Tn551 transposon mutant; conditions: Tn551 inserted into mecA; cited from earlier work
MRSA strain COL [3] = assay: Methicillin MIC, parental highly methicillin resistant strain COL; type: cell-based, Staphylococcus aureus
Experimental: as §1

[4] = test system: mutant RUSA315 (femR315::Tn551); assay: Methicillin MIC, Tn551 insertional mutant RUSA315; type: cell-based; conditions: Staphylococcus aureus
Experimental: as §1

SWTD5 (RUSA12F/pGCSW-3) = assay: Standard disk susceptibility, transductant SWTD5; type: cell-based, Staphylococcus aureus; conditions: SWTD5 versus recipient RUSA12F; FIG. 5
Experimental: as §1, §2

[5] = test system: Tn551 insertional (auxiliary) mutants; assay: Methicillin MIC, Tn551 auxiliary mutants with intact mecA; type: cell-based; conditions: Staphylococcus aureus, read-out: methicillin MIC
[6] = test system: staphylococci without the mecA gene; conditions: bacteria without mecA; cited from earlier work
four staphylococcal PBPs = conditions: in vitro; cited from earlier work
SWTD3 (RUSA315/pGCSW-3) [7] = assay: Population analysis on methicillin-containing TSA plates, SWTD3; type: cell-based, Staphylococcus aureus; conditions: SWTD3, data not shown
Experimental: as §1

MRSA strain COL [8] = conditions: cited from earlier work
[9] = test system: Tn551 insertional (auxiliary) mutants; conditions: cited from earlier work

## COc1cccc(OC)c1C(=O)N[C@@H]1C(=O)N2[C@@H]1SC(C)(C)[C@@H]2C(=O)O [methicillin]
SWTD3 (RUSA315/pGCSW-3) [1]
  antimicrobial susceptibility (disk, inhibition zone): restored resistance
Strain COL
  critical concentration at which a new cell wall synthetic machinery, presumably PBP2A, takes over: about 5 mg/L
[2]
  MIC: about 4 μg/ml
MRSA strain COL [3]; Staphylococcus aureus, MRSA, read-out: methicillin MIC
  MIC: 1600 µg/mL (≈ 4210 µM)
MRSA strain COL [3]; parental MRSA strain COL
  methicillin MIC: 1600 µg/mL
[4]
  MIC: 12 to 25 µg/mL (≈ 31.5 to 65.7 µM)
[4]; RUSA315, Tn551 insert Ω720, read-out: methicillin MIC
  MIC: 1.5 µg/mL (≈ 3.94 µM)
SWTD5 (RUSA12F/pGCSW-3)
  antimicrobial susceptibility (disk, inhibition zone): restored resistance
[5]
  MIC: 1.5 to 200 µg/mL (≈ 3.94 to 526 µM)
[6]
  methicillin MIC: 1 to 2 µg/mL
Four staphylococcal PBPs
  methicillin concentration range within which all four normal PBPs become fully acylated: 5 to 10 mg/L
SWTD3 (RUSA315/pGCSW-3) [7]
  level of methicillin resistance by population analysis: same level of methicillin resistance as the parental Mc^r strain COL
MRSA strain COL [8]; highly resistant strain COL
  methicillin MIC: 1600 µg/mL
MRSA strain COL [8]; parental bacterium before Tn551 inactivation
  MIC: 1600 µg/mL (≈ 4210 µM)
[9]; Tn551 mutants still producing normal amounts of PBP2A
  methicillin MIC: 3 µg/mL
[9]; inactivation of auxiliary genes, PBP2A present
  MIC: 3 mg methicillin per liter

## penicillin
SWTD3 (RUSA315/pGCSW-3) [1]
  antimicrobial susceptibility (disk, inhibition zone): restored resistance
SWTD5 (RUSA12F/pGCSW-3)
  antimicrobial susceptibility (disk, inhibition zone): restored resistance

## Cc1nnc(SCC2=C(C(=O)O)N3C(=O)[C@@H](NC(=O)Cn4cnnn4)[C@H]3SC2)s1 [cefazoline, cefazolin]
SWTD3 (RUSA315/pGCSW-3) [1]
  antimicrobial susceptibility (disk, inhibition zone): restored resistance
SWTD5 (RUSA12F/pGCSW-3)
  antimicrobial susceptibility (disk, inhibition zone): restored resistance

## ampicillin/sulbactam [ampicillinisulbactam]
SWTD3 (RUSA315/pGCSW-3) [1]
  antimicrobial susceptibility (disk, inhibition zone): restored resistance
SWTD5 (RUSA12F/pGCSW-3)
  antimicrobial susceptibility (disk, inhibition zone): restored resistance

From patent US6391614B1, “Auxiliary gene and protein of methicillin resistant bacteria and antagonists thereof” (priority 1995, dated 2002)
